Experimental data as given in patent publication US20250051300A1, “GRAM-NEGATIVE SPECIFIC ANTIBIOTICS SPARING EFFECT ON GUT MICROBIOME” (THE BOARD OF TRUSTEES OF THE UNIVERSITY OF ILLINOIS, priority 2021, published 2025).

Assays:
Salmonella typhimurium = assay: MIC, micro-dilution broth method (CLSI); assay type: cell-based; conditions: Salmonella enterica, ATCC 14028 / TYPHIMURIUM; Salmonella typhimurium ATCC14028
Proteus mirabilis = assay: MIC, gut commensal bacteria, micro-dilution broth
K. pneumoniae ATCC 27736 = assay: Resistance frequency, large inoculum method; assay type: cell-based, Klebsiella pneumoniae; conditions: wild-type K. pneumoniae ATCC 27736, 8×MIC
Protocol: Selection of resistant mutants. Resistant mutants were selected using the large inoculum method. Briefly, E. coli BW25113, K. pneumoniae ATCC 27736, or E. cloacae ATCC 29893 (˜1.0×10^7 c.f.u.) was plated on 100-mm plates of Luria Bertani agar containing 8, 16, 32, or 64 μg/mL, lolamycin. For E. coli ΔtolC (JW5503), ˜1.0×10^7 c.f.u. was plated on 100-mm plates of Luria Bertani agar containing 0.063, 0.13, 0.25, 0.5 μg/mL lolamycin. Colonies were visible after incubating at 37° C. for 48 h. Resistant colonies were confirmed by growing colonies in selective media with the same concentration of lolamycin.

[1] = tested on: Stenotrophomonas maltophilia; assay: MIC, gut commensal bacteria, micro-dilution broth
[2] = tested on: E. coli BW25113 LolC/LolE mutants; assay: MIC against lolamycin-resistant LolCDE mutants; assay type: cell-based, Escherichia coli
[3] = tested on: Streptococcus parasanguinis; assay: MIC, gut commensal bacteria, micro-dilution broth
K. pneumoniae BAA-1705 = assay: Bacterial sepsis survival model; assay type: in vivo, CD-1 mice; conditions: carbapenem-resistant K. pneumoniae, 200 mg/kg IP once daily for 3 days (FIG. 7D)
A-549 cells = assay: Cell viability (Alamar Blue), mammalian cell line; assay type: cell-based; conditions: Homo sapiens, A549, read-out: IC50, mammalian cell lines (converted)
Protocol: (§1) Cell culture. HFF-1 cells (newborn) were obtained from the ATCC. […] A-549 cells (adult) were obtained from the ATCC. […] All cells were cultured at 37° C. under a 5% CO2 environment. Cell lines were authenticated externally by a commercial vendor and inspected visually in house. Cell lines were not tested for Mycoplasma contamination. The media was prepared by the University of Illinois School of Chemical Sciences Cell Media Facility. Cell viability. HFF-1 cells were seeded (8,000 cells/well) in a 96-well plate (Greiner Bio-One; catalogue number: 655180) and allowed to attach overnight. Cells were treated with investigational compounds in dimethyl sulfoxide (DMSO). […] Raptinal (100 μM) was used as a dead control. On each plate, at least three technical replicates per compound were performed. After 24 h post-treatment, cell viability was assessed using the Alamar Blue method. Stock Alamar Blue solution (10 μL 440 μM resazurin (Sigma-Aldrich; catalogue number: R7017) in sterile 1×PBS) was added to each well, and the plate was incubated for 3-4 h. Conversion of Alamar Blue was measured with a plate reader (SpectraMax M3; Molecular Devices) by fluorescence (excitation wavelength: 555 nm; emission wavelength: 585 nm; cutoff 570 nm; autogain). Percentage death was determined by normalizing to DMSO-treated cells and Raptinal-treated cells. […]

HFF-1 cells = assay: Cell viability (Alamar Blue), mammalian cell line; assay type: cell-based; conditions: Homo sapiens, HFF-1, 24 h, read-out: IC50, mammalian cell lines
Protocol: as §1

K. pneumoniae AR0040 = assay: Acute pneumonia bacterial burden model; assay type: in vivo, CD-1 mice; conditions: colistin-resistant K. pneumoniae, 100 mg/kg IP (FIG. 7C)

Cc1cc(-c2c[nH]nc2-c2cccc(OCc3cccc(C#N)c3)c2)cc(C)n1 [Compound 12, 3-((3-(4-(2,6-dimethylpyridin-4-yl)-1H-pyrazol-3-yl)phenoxy)methyl)benzonitrile]
showed the efficacy: efficacy, survival (K. pneumoniae BAA-1705) | efficacy, bacterial burden (K. pneumoniae AR0040)
1 µg/mL: MIC (Salmonella typhimurium)
41.9 µM: IC50 (A-549 cells)
>128 µg/mL: MIC (Proteus mirabilis; Proteus mirabilis ATCC 35659, listed as Lolamycin) | MIC ([1]; Stenotrophomonas maltophilia ATCC 13637, BHI-ych, listed as Lolamycin) | MIC ([2]; E. coli BW25113 mutant D264N (LolE), selected at 32-fold MIC) | MIC ([2]; E. coli BW25113 mutant E195K (LolC), selected at 32-fold MIC) | MIC ([2]; E. coli BW25113 mutant E255D (LolC), selected at 32-fold MIC) | MIC ([2]; E. coli BW25113 mutant F367S (LolE), selected at 32-fold MIC) | MIC ([2]; E. coli BW25113 mutant I206N (LolE), selected at 32-fold MIC) | MIC ([2]; E. coli BW25113 mutant M262I (LolC), selected at 32-fold MIC) | MIC ([2]; E. coli BW25113 mutant N265K (LolC), selected at 32-fold MIC) | MIC ([2]; E. coli BW25113 mutant Q258P (LolC), selected at 32-fold MIC) | MIC ([3]; Streptococcus parasanguinis KLE 2375, BHI-ych, listed as Lolamycin)
> 128 µg/mL: MIC (Proteus mirabilis; Proteus mirabilis, ATCC35659) | MIC ([1]; Stenotrophomonas maltophilia, ATCC13637) | MIC ([2]; Escherichia coli, BW25113) | MIC ([3]; Streptococcus parasanguinis)
85.3 ± 11.8 µM: IC50 (HFF-1 cells)
1.2×10^−8: resistance frequency (K. pneumoniae ATCC 27736)
